Reference: paper PMC3806465, “Discovery and Evaluation of Thiazinoquinones as Anti-Protozoal Agents” (Marine Drugs, 2013)

Experiments:
[1] = system: Trypanosoma brucei rhodesiense, STIB 900 strain, trypomastigotes stage; experiment: In vitro activity against T. b. rhodesiense; format: cell-based; settings: Trypanosoma brucei; STIB 900, trypomastigotes; average of two independent assays; read-out: IC50 T. b. rhod.
Procedure: (§1) The in vitro activities against the protozoan parasites T.b. rhodesiense, T. cruzi, L. donovani, and P. falciparum and cytotoxicity assessment against L6 cells were determined as reported elsewhere.

[2] = system: Trypanosoma cruzi, Tulahuen C4 strain, amastigotes stage; experiment: In vitro activity against T. cruzi; format: cell-based; settings: Trypanosoma cruzi, TULAHUEN, Tulahuen C4, amastigotes; average of two independent assays; read-out: IC50 T. cruzi
Procedure: as §1

[3] = system: Leishmania donovani, MHOM-ET-67/L82 strain, amastigote/axenic stage; experiment: In vitro activity against L. donovani; format: cell-based; settings: Leishmania donovani, MHOM-ET-67/L82, axenic amastigotes; average of two independent assays; read-out: IC50 L. don.
Procedure: as §1

[4] = system: Plasmodium falciparum, K1 strain, IEF stage; experiment: In vitro activity against P. falciparum K1; format: cell-based; settings: for IC50: Plasmodium falciparum, K1 dual drug resistant strain, IEF stage, average of two independent assays, read-out: IC50 P. falc. K1; for SI Pf: Selectivity index for P. falciparum = IC50 L6/IC50 Pf
Procedure: as §1

[5] = system: L6 rat skeletal myoblast cell line; experiment: Cytotoxicity against L6 cells; format: cell-based; settings: Rattus norvegicus, Myoblast, cytotoxicity, L6 rat skeletal myoblasts; average of two independent assays; read-out: IC50 L6
Procedure: as §1

[6] = system: GFP-transfected P. berghei strain ANKA; experiment: In vivo anti-malarial efficacy in P. berghei infected mice; set-up: species or system NMRI mice
Procedure: Furan carboxylic acid analogue 16 was selected for preliminary proof-of-principle in vivo evaluation in Plasmodium berghei infected mice. […] Switching to an oral dosing experiment (100 mg/kg once per day for 4 days) yielded a 47% reduction of parasitaemia. Although not considered significant, these levels of activity for both ip and po dosing clearly identifies heterocyclic dioxothiazinoquinone carboxylic acids to be a novel anti-malarial drug scaffold warranting further structure-activity relationship studies.
In vivo anti-malarial activity was assessed as previously described. Groups of three female NMRI mice (20–22 g) were intravenously infected with 2 × 10^7 parasitized erythrocytes on day 0 with GFP-transfected P. berghei strain ANKA [24]. Compounds were formulated in 100% DMSO, diluted 10-fold in distilled water and administered intraperitoneally in a volume of 10 ml kg^−1 on four consecutive days (4, 24, 48 and 72 h post infection). Control experiments used DMSO-H2O vehicle alone. Parasitemia was determined on day 4 post infection (24 h after last treatment) by FACS analysis. Activity was calculated as the difference between the mean per cent parasitaemia for the control (n = 5 mice) and treated groups expressed as a per cent relative to the control group. The survival of the animals was usually monitored up to 30 days: a compound was considered curative if the animal survived to day 30 after infection with no detectable parasites. In vivo efficacy studies in mice were conducted according to the rules and regulations for the protection of animal rights (“Tierschutzverordnung”) of the Swiss “Bundesamt für Veterinärwesen”. They were approved by the veterinary office of Canton Basel-Stadt, Switzerland.

[7] = in vivo, 150 mg/kg

Row | Compound | IC50 [1] [µM] | IC50 [2] [µM] | IC50 [3] [µM] | IC50 [4] [µM] | SI Pf [4] | IC50 [5] [µM] | reduction in parasitaemia ([6]; ip 50 (mg/kg)/day for four days) [%] | mean survival time ([6]; ip 50 (mg/kg)/day for four days, untreated control 4–6 days) [days] | reduction of parasitaemia ([6]; oral 100 mg/kg once per day for 4 days) [%] | ip acute toxicity [7] | melting point
1 | O=C(O)c1cc2c(o1)C(=O)C1=C(C2=O)S(=O)(=O)CCN1 [Compound 16, 5,9-Dioxo-3,4,5,9-tetrahydro-2H-benzofuro[5,6-b][1,4]thiazine-7-carboxylic Acid 1,1-Dioxide] | 7.5 | > 300 | > 300 | 0.12 | 2400 | 290 | 85.7 | 9.6 | 47 | no toxicity | –
2 | CCOC(=O)c1cc2c(o1)C(=O)C1=C(C2=O)S(=O)(=O)CCN1 [Compound 15, Ethyl 5,9-Dioxo-3,4,5,9-tetrahydro-2H-benzofuro[5,6-b][1,4]thiazine-7-carboxylate 1,1-Dioxide] | 1.1 | 4.7 | 40 | 0.11 | 46 | 5.1 | – | – | – | – | 277 °C
3 | O=C(NCCCc1ccccc1)c1ccc2c(n1)C(=O)C1=C(C2=O)S(=O)(=O)C=CN1 [Compound 8f, N-(3-Phenylpropyl)-5,10-dioxo-5,10-dihydro-4H-[1,4]thiazino[2,3-g]quinoline-7-carboxamide 1,1-Dioxide] | 5.9 | 59 | > 240 | 1.2 | 5 | 6.5 | – | – | – | – | 230 °C (dec.)
